Each structure is given as a SMILES string.

This assay addresses T1, AXL (fusion protein of amino acids 464-885 of the intracellular domain of human AXL with glutathione transferase) (Homo sapiens, UniProt P30530).
T1 sequence (P30530 464-885 isoform P30530-2): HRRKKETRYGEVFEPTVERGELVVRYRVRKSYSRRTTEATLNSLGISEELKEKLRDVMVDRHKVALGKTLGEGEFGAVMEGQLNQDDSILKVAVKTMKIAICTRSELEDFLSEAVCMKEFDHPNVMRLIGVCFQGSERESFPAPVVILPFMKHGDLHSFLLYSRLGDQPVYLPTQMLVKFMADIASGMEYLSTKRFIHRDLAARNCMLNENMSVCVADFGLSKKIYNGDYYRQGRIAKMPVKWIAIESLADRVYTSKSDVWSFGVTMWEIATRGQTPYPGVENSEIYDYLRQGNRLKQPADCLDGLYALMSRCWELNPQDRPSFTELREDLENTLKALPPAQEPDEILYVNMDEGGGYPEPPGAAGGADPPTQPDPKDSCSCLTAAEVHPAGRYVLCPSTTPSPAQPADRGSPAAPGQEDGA
The experiment in a line: Cell-Free Axl Kinase Inhibitory Activity.
Method: Next, the test compound was diluted with DMSO, and 1 μl of this diluted solution was added to each well.
Five microliters of this solution were added to each well to initiate a kinase reaction. The plate was incubated at 28° C. for 1.5 hours, and 40 μl of a termination buffer (100 mM HEPES (pH 7.4), 0.015% Brij-35, 40 mM EDTA, 0.1% Coating Reagent 3) was added to each well to terminate the reaction.
The substrate peptide and the phosphorylated peptide in the reaction solution were separated and quantified by EZ Reader II (Caliper Life Sciences).
IC50 was determined from inhibition data for 12 test compound concentrations by nonlinear regression (four-parameter logistic regression) using the following formula.
For orientation: IC50 means the point on the concentration scale where inhibition reaches its midpoint. A higher IC50 goes with weaker potency in that assay. `CC(O)Cn1cc(-c2cnc(N)c(-c3ccc(NC(=O)c4cn(CCF)cc(-c5ccc(F)cc5)c4=O)cc3)c2)cn1` (racemic) [Example 63, N-(4-{2-Amino-5-[1-(2-hydroxypropyl)-1H-pyrazol-4-yl]pyridin-3-yl}phenyl)-1-(2-fluoroethyl)-5-(4-fluorophenyl)-4-oxo-1,4-dihydropyridine-3-carboxamide]: the IC50 was 1 to 10 nM.
For `COc1ccc(-c2cnc(N)c(-c3ccc(NC(=O)c4cn(C)cc(-c5ccc(F)cc5)c4=O)cc3)c2)cc1OC` [Example 2, N-{4-[2-Amino-5-(3,4-dimethoxyphenyl)pyridin-3-yl]phenyl}-5-(4-fluorophenyl)-1-methyl-4-oxo-1,4-dihydropyridine-3-carboxamide], the IC50 lay within 1 to 10 nM.
Next, `CCn1cc(C(=O)Nc2ccc(-c3cc(-c4ccc(OC)c(OC)c4)cnc3N)cc2)c(=O)c(-c2ccc(F)cc2)c1` [Example 3, N-{4-[2-Amino-5-(3,4-dimethoxyphenyl)pyridin-3-yl]phenyl}-1-ethyl-5-(4-fluorophenyl)-4-oxo-1,4-dihydropyridine-3-carboxamide]: 0.1 to 1 nM.
Turning to `COc1ccc(-c2cnc(N)c(-c3ccc(NC(=O)c4cn(C(C)C)cc(-c5ccc(F)cc5)c4=O)cc3)c2)cc1OC` [Example 4, N-{4-[2-Amino-5-(3,4-dimethoxyphenyl)pyridin-3-yl]phenyl}-5-(4-fluorophenyl)-4-oxo-1-(propan-2-yl)-1,4-dihydropyridine-3-carboxamide], the IC50 fell in the range of 1 to 10 nM.
`COCCn1cc(C(=O)Nc2ccc(-c3cc(-c4ccc(OC)c(OC)c4)cnc3N)cc2)c(=O)c(-c2ccc(F)cc2)c1` [Example 5, N-{4-[2-Amino-5-(3,4-dimethoxyphenyl)pyridin-3-yl]phenyl}-5-(4-fluorophenyl)-1-(2-methoxyethyl)-4-oxo-1,4-dihydropyridine-3-carboxamide]: the IC50 was in the range of 0.1 to 1 nM.
Regarding `COc1ccc(-c2cnc(N)c(-c3ccc(NC(=O)c4cn(CCF)cc(-c5ccc(F)cc5)c4=O)cc3)c2)cc1OC` [Example 8, N-{4-[2-Amino-5-(3,4-dimethoxyphenyl)pyridin-3-yl]phenyl}-1-(2-fluoroethyl)-5-(4-fluorophenyl)-4-oxo-1,4-dihydropyridine-3-carboxamide], the IC50 lay within 1 to 10 nM.
Next, `COc1ccc(-c2cnc(N)c(-c3ccc(NC(=O)c4cn(Cc5ccccc5)cc(-c5ccc(F)cc5)c4=O)cc3)c2)cc1OC` [Example 10, N-{4-[2-Amino-5-(3,4-dimethoxyphenyl)pyridin-3-yl]phenyl}-1-benzyl-5-(4-fluorophenyl)-4-oxo-1,4-dihydropyridine-3-carboxamide]: 1 to 10 nM; `COc1ccc(-c2cnc(N)c(-c3ccc(NC(=O)c4cn(Cc5ccc(F)cc5)cc(-c5ccc(F)cc5)c4=O)cc3)c2)cc1OC` [Example 11, N-{4-[2-Amino-5-(3,4-dimethoxyphenyl)pyridin-3-yl]phenyl}-1-(4-fluorobenzyl)-5-(4-fluorophenyl)-4-oxo-1,4-dihydropyridine-3-carboxamide]: 0.1 to 1 nM; `COc1ccc(-c2cnc(N)c(-c3ccc(NC(=O)c4cn(Cc5ccccn5)cc(-c5ccc(F)cc5)c4=O)cc3)c2)cc1OC` [Example 12, N-{4-[2-Amino-5-(3,4-dimethoxyphenyl)pyridin-3-yl]phenyl}-5-(4-fluorophenyl)-4-oxo-1-(pyridin-2-ylmethyl)-1,4-dihydropyridine-3-carboxamide]: 0.1 to 1 nM.
Next, `COc1ccc(-c2cnc(N)c(-c3ccc(NC(=O)c4cn(Cc5ccncc5)cc(-c5ccc(F)cc5)c4=O)cc3)c2)cc1OC` [Example 13, N-{4-[2-Amino-5-(3,4-dimethoxyphenyl)pyridin-3-yl]phenyl}-5-(4-fluorophenyl)-4-oxo-1-(pyridin-4-ylmethyl)-1,4-dihydropyridine-3-carboxamide]: 0.1 to 1 nM; `CNC(=O)Cn1cc(C(=O)Nc2ccc(-c3cc(-c4ccc(OC)c(OC)c4)cnc3N)cc2)c(=O)c(-c2ccc(F)cc2)c1` [Example 15, N-{4-[2-Amino-5-(3,4-dimethoxyphenyl)pyridin-3-yl]phenyl}-5-(4-fluorophenyl)-1-[2-(methylamino)-2-oxoethyl]-4-oxo-1,4-dihydropyridine-3-carboxamide]: 0.1 to 1 nM; `COc1ccc(-c2cnc(N)c(-c3ccc(NC(=O)c4cn(CC(=O)N(C)C)cc(-c5ccc(F)cc5)c4=O)cc3)c2)cc1OC` [Example 16, N-{4-[2-Amino-5-(3,4-dimethoxyphenyl)pyridin-3-yl]phenyl}-1-[2-(dimethylamino)-2-oxoethyl]-5-(4-fluorophenyl)-4-oxo-1,4-dihydropyridine-3-carboxamide]: 1 to 10 nM.
Next, `COc1ccc(-c2cnc(N)c(-c3ccc(NC(=O)c4cn(CC(F)(F)OC)cc(-c5ccc(F)cc5)c4=O)cc3)c2)cc1OC` [Example 17, N-{4-[2-Amino-5-(3,4-dimethoxyphenyl)pyridin-3-yl]phenyl}-1-(2,2-difluoro-2-methoxyethyl)-5-(4-fluorophenyl)-4-oxo-1,4-dihydropyridine-3-carboxamide]: 0.1 to 1 nM; `COc1ccc(-c2cnc(N)c(-c3ccc(NC(=O)c4cn(CCF)cc(-c5ccccc5)c4=O)cc3)c2)cc1OC` [Example 19, N-{4-[2-Amino-5-(3,4-dimethoxyphenyl)pyridin-3-yl]phenyl}-1-(2-fluoroethyl)-4-oxo-5-phenyl-1,4-dihydropyridine-3-carboxamide]: 1 to 10 nM; `COc1ccc(-c2cnc(N)c(-c3ccc(NC(=O)c4cn(CC(F)(F)F)cc(-c5ccccc5)c4=O)cc3)c2)cc1OC` [Example 20, N-{4-[2-Amino-5-(3,4-dimethoxyphenyl)pyridin-3-yl]phenyl}-4-oxo-5-phenyl-1-(2,2,2-trifluoroethyl)-1,4-dihydropyridine-3-carboxamide]: 1 to 10 nM.
In the case of `COc1ccc(-c2cnc(N)c(-c3ccc(NC(=O)c4cn(CC(F)(F)F)cc(-c5ccccc5F)c4=O)cc3)c2)cc1OC` [Example 21, N-{4-[2-Amino-5-(3,4-dimethoxyphenyl)pyridin-3-yl]phenyl}-5-(2-fluorophenyl)-4-oxo-1-(2,2,2-trifluoroethyl)-1,4-dihydropyridine-3-carboxamide], the IC50 fell in the range of 1 to 10 nM.
`COc1ccc(-c2cnc(N)c(-c3ccc(NC(=O)c4cn(CC(F)(F)F)cc(-c5ccc(F)nc5)c4=O)cc3)c2)cc1OC` [Example 23, N-{4-[2-Amino-5-(3,4-dimethoxyphenyl)pyridin-3-yl]phenyl}-6′-fluoro-4-oxo-1-(2,2,2-trifluoroethyl)-1,4-dihydro-3,3′-bipyridine-5-carboxamide]: the IC50 lay within 1 to 10 nM.
Regarding `COc1ccc(-c2cnc(N)c(-c3ccc(NC(=O)c4cn(CC(F)(F)F)cc(-c5ccc(C)cc5)c4=O)cc3)c2)cc1OC` [Example 24, N-{4-[2-Amino-5-(3,4-dimethoxyphenyl)pyridin-3-yl]phenyl}-5-(4-methylphenyl)-4-oxo-1-(2,2,2-trifluoroethyl)-1,4-dihydropyridine-3-carboxamide], the IC50 fell in the range of 0.1 to 1 nM.
Next, `COc1ccc(-c2cnc(N)c(-c3ccc(NC(=O)c4cn(CC(F)(F)F)cc(-c5ccc(Cl)cc5)c4=O)cc3)c2)cc1OC` [Example 25, N-{4-[2-Amino-5-(3,4-dimethoxyphenyl)pyridin-3-yl]phenyl}-5-(4-chlorophenyl)-4-oxo-1-(2,2,2-trifluoroethyl)-1,4-dihydropyridine-3-carboxamide]: 1 to 10 nM.

The values above are taken from patent US8933103B2, “Pyridone derivatives” (Daiichi Sankyo Company, Limited, priority 2012, dated 2015).
